ChEMBL document CHEMBL1149722, “Alkaloids from Psychotria oleoides with activity on growth hormone release” (J Nat Prod, 1992)
Active and inactive are the calls of the source. No cut-off for these calls is given here.

Species on record: Rattus norvegicus
Assay: Antagonist activity at SRIF in rat pituitary culture assessed as effect on growth hormone secretion
Type: functional

CN1CC[C@]2(c3cccc4c3C[C@H]3N(C)CC[C@@]45[C@@H]4Nc6c([C@]78CCN(C)[C@H]7Nc7ccccc78)cccc6[C@]35CCN4C)c3ccccc3N[C@H]12
Activity: Active
